The values below come from DBAASP.

As usually defined, the MIC is the lowest concentration found to suppress growth.

≈ marks a conversion by molar mass, not a printed value.

Test systems include Acinetobacter baumannii; Escherichia coli 4530; Escherichia coli 170; Escherichia coli F470; Escherichia coli F2513; Escherichia coli JW3596; Escherichia coli BW25113; Escherichia coli JW3605.
Test in all cases: ≥ marks a high value that may be exact or a test limit, other limits are often not marked, values filed in µg/mL are converted to µM
Assay [1] deals with Bacillus anthracis Sterne 34F2.
For assay [2], the system named is Burkholderia thailandensis.
Assay [3] deals with Bacillus subtilis ATCC 9372.
For assay [4], the system named is Candida albicans KCTC 7270.
Assay [5] deals with Salmonella typhimurium CCARM 8009.
For assay [6], the system named is Listeria monocytogenes KCTC 3710.
Assay [7] has as its system Listeria monocytogenes ATCC 19115.
Assay [8] concerns Proteus vulgaris KCTC 2433.
Assay [9] has as its system Aspergillus fumigatus KCTC 6145.
Assay [10] relates to Salmonella typhimurium CCARM 8013.
Assay [11] concerns Pseudomonas aeruginosa 4007.
The subject of assay [12] is Staphylococcus epidermidis KCTC 3096.
In assay [13] the test system is Staphylococcus aureus CCARM 3114.
The test system of assay [14] is Aspergillus flavus KCTC 6905.
In assay [15] the test system is Escherichia coli CCARM 1238.
For assay [16], the system named is Pseudomonas aeruginosa KCTC 1637.
Assay [17] relates to Pseudomonas aeruginosa 3547.
Assay [18] has as its system Aspergillus parasiticus KCTC 6598.
Assay [19] relates to Staphylococcus epidermidis ATCC 12228.
Assay [20] relates to Staphylococcus aureus PBEL.
Assay [21] concerns Staphylococcus aureus CCARM 3089.
Assay [22] deals with Aspergillus awamori KCTC 6915.
The test system of assay [23] is Trichosporon beigelii KCTC 7707.
In assay [24] the test system is Pseudomonas aeruginosa ATCC 15692.
Assay [25] has as its system Escherichia coli CCARM 1229.
The test system of assay [26] is Bacillus subtilis KCTC 1918.
The subject of assay [27] is Salmonella typhimurium KCTC 1926.
Assay [28] concerns Bacillus subtilis KCTC 1998.
In assay [29] the test system is Klebsiella pneumoniae 913.
In assay [30] the test system is Pseudomonas aeruginosa 4677.
In assay [31] the test system is Enterobacter cloacae 6780.
In assay [32] the test system is Pseudomonas aeruginosa 5106.
For assay [33], the system named is Klebsiella pneumoniae 1625.
The subject of assay [34] is Enterobacter cloacae 2524.
Assay [35] has as its system Escherichia coli ATCC 25922.
Assay [36] has as its system Micrococcus luteus ATCC 9341.

As for `CC[C@H](C)[C@@H]1NC(=O)CNC(=O)[C@H](CO)NC(=O)[C@H](CC(C)C)NC(=O)[C@H](CC(C)C)NC(=O)[C@H](CC(=O)O)NC(=O)[C@@H](NC(=O)[C@@H](NC(=O)[C@H](C)N)[C@@H](C)O)CSSC[C@@H]2NC(=O)[C@H](Cc3ccc(O)cc3)NC(=O)CNC(=O)CNC(=O)[C@H](CCCN=C(N)N)NC(=O)[C@H](CC(N)=O)NC(=O)CNC(=O)[C@H](CCCN=C(N)N)NC(=O)[C@H](Cc3ccccc3)NC(=O)[C@H](C(C)C)NC(=O)[C@@H]3CSSC[C@@H](C(=O)N[C@@H](CCCN=C(N)N)C(=O)N[C@@H](CC(N)=O)C(=O)O)NC(=O)[C@H](C(C)C)NC(=O)[C@H](CSSC[C@H](NC(=O)[C@H](C)NC(=O)[C@H](CO)NC(=O)[C@H](Cc4cnc[nH]4)NC(=O)[C@H](CCC(N)=O)NC(=O)[C@H](C(C)C)NC(=O)CNC1=O)C(=O)N[C@@H](C)C(=O)N[C@@H](CC(C)C)C(=O)N[C@@H](Cc1cnc[nH]1)C(=O)N3)NC(=O)[C@H]([C@@H](C)CC)NC(=O)CNC(=O)[C@H](CCCCN)NC(=O)CNC(=O)[C@H]([C@@H](C)O)NC2=O` [ATCDLLSGIGVQHSACALHCVFRGNRGGYCTGKGICVCRN], the MIC was no less than 79 µM in assay [1], no less than 50 µM in [2] and 7.9 µM (≈ 32.7 µg/mL) in [3].
Turning to `CC[C@H](C)[C@H](NC(=O)[C@H](CCCCN)NC(=O)[C@H](CCCCN)NC(=O)[C@H](Cc1ccccc1)NC(=O)[C@H](CC(C)C)NC(=O)[C@H](CCCCN)NC(=O)[C@H](CCCCN)NC(=O)[C@H](CC(C)C)NC(=O)[C@H](CCCN=C(N)N)NC(=O)[C@H](CCCCN)NC(=O)[C@@H](N)Cc1ccccc1)C(=O)N[C@@H](Cc1c[nH]c2ccccc12)C(=O)N[C@@H](CC(N)=O)C(=O)N[C@@H](Cc1c[nH]c2ccccc12)C(=O)N[C@@H](CCCCN)C(N)=O` [FKRLKKLFKKIWNWK], the MIC stood at 8 µM (≈ 16.5 µg/mL) in [4]; 4 µM (≈ 8.25 µg/mL) in [5]; 2 µM (≈ 4.13 µg/mL) in assay [6]; 2 µM (≈ 4.13 µg/mL) in assay [7]; 8 µM (≈ 16.5 µg/mL) in assay [8]; 4 µM (≈ 8.25 µg/mL) in [9]. Besides, the MIC in assay [10] worked out at 1 µM (≈ 2.06 µg/mL); in [11], 1 µM (≈ 2.06 µg/mL); in assay [12], 2.83 µM (≈ 5.83 µg/mL); in assay [13], 2 µM (≈ 4.13 µg/mL); in [14], 16 µM (≈ 33 µg/mL); in [15] it was 2 µM (≈ 4.13 µg/mL). For the same molecule, the MIC is 2 µM (≈ 4.13 µg/mL) in assay [16]; 4 µM (≈ 8.25 µg/mL) in [17]; 8 µM (≈ 16.5 µg/mL) in assay [18]; 2.83 µM (≈ 5.83 µg/mL) in assay [19]; 1 µM (≈ 2.06 µg/mL) in assay [20]; 2 µM (≈ 4.13 µg/mL) in assay [21]. The minimum inhibitory concentration (MIC) in [22] is 16 µM (≈ 33 µg/mL); in assay [23] it was 16 µM (≈ 33 µg/mL); in assay [24] it was 2 µM (≈ 4.13 µg/mL); in assay [25] it was 2 µM (≈ 4.13 µg/mL); in assay [26], 2 µM (≈ 4.13 µg/mL); in [27] it was 2 µM (≈ 4.13 µg/mL). This molecule displayed an MIC in assay [28] of 2 µM (≈ 4.13 µg/mL).
As to `CC[C@H](C)[C@H](N)C(=O)N[C@@H](CCCCN)C(=O)N[C@@H](CO)C(=O)N[C@H](C(=O)N[C@@H](C)C(=O)N[C@@H](CO)C(=O)N[C@@H](CCCCN)C(=O)N[C@H](C(=O)N[C@@H](C)C(=O)N[C@@H](CC(N)=O)C(=O)N[C@H](C(=O)N[C@H](C(=O)N[C@@H](CCC(N)=O)C(=O)N[C@@H](CCCCN)C(=O)N[C@@H](CC(C)C)C(=O)N[C@@H](CCCCN)C(=O)N[C@@H](CCCN=C(N)N)C(=O)N[C@@H](CCCCN)C(=O)N[C@@H](C)C(=O)N[C@@H](CCCCN)C(=O)N[C@@H](CC(N)=O)C(=O)N[C@@H](C)C(=O)N[C@H](C(=O)O)C(C)C)C(C)C)[C@@H](C)O)C(C)C)[C@@H](C)CC` [IKSIASKVANTVQKLKRKAKNAV], the MIC in assay [29] was no less than 50 µM; in assay [30] it was 12.5 µM (≈ 31.2 µg/mL); against Acinetobacter baumannii, 8.84 µM (≈ 22.1 µg/mL); in [31], 25 µM (≈ 62.4 µg/mL); in [32], no less than 50 µM; in [33], 3.12 µM (≈ 7.79 µg/mL). Besides, the MIC in assay [34] was no less than 50 µM; in assay [35], 12.5 µM (≈ 31.2 µg/mL); in the assay with Escherichia coli 4530, 25 µM (≈ 62.4 µg/mL); with Escherichia coli 170, 3.12 µM (≈ 7.79 µg/mL).
For the molecule `CC[C@H](C)[C@H](N)C(=O)N[C@@H](CC(C)C)C(=O)N1CCC[C@H]1C(=O)N[C@@H](Cc1c[nH]c2ccccc12)C(=O)N[C@@H](CCCCN)C(=O)N[C@@H](Cc1c[nH]c2ccccc12)C(=O)N1CCC[C@H]1C(=O)N[C@@H](Cc1c[nH]c2ccccc12)C(=O)N[C@@H](Cc1c[nH]c2ccccc12)C(=O)N1CCC[C@H]1C(=O)N[C@@H](Cc1c[nH]c2ccccc12)C(=O)N[C@@H](CCCN=C(N)N)C(N)=O` [ILPWKWPWWPWR], the MIC against Escherichia coli F470 worked out at 18.3 µM (≈ 32 µg/mL); in the assay on Escherichia coli F2513 it was 6.46 µM (≈ 11.3 µg/mL); in the assay with Escherichia coli JW3596, 2.28 µM (≈ 4 µg/mL); against Escherichia coli BW25113 it was 18.3 µM (≈ 32 µg/mL); in assay [35] it was 18.3 µM (≈ 32 µg/mL); in assay [36], 0.8 µM (≈ 1.4 µg/mL). This molecule also displayed an MIC with Escherichia coli JW3605 of 18.3 µM (≈ 32 µg/mL).
